Source: the supplement of paper PMC10627819

How the values were obtained:
Assay in all cases: fitness (endpoint OD595 vs no drug) (fraction); higher = more growth
B. subtilis 168 = system: B. subtilis 168
Summary of the method: (§1)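 Volumes were 30 µl per well, or 55 µl for S. pneumoniae, in 384-well plates inoculated at OD595 0.01. Media were TSB, LB Lennox or CY at 37 °C, and OD595 was read every 30 min for 14 h with first-reading background subtraction. Fitness is the ratio of optical density at stationary-phase entry to the robust mean of no-drug controls. That ratio is capped at 1.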

S. aureus DSM 20231 = system: S. aureus DSM 20231
Summary of the method: as §1

S. aureus Newman = system: S. aureus Newman
Summary of the method: as §1

S. pneumoniae D39V = system: S. pneumoniae D39V
Summary of the method: as §1

[1] = first compound 1 µg/mL, partner 0.15 µg/mL
[2] = first compound 1 µg/mL, partner 0.3 µg/mL
[3] = first compound 1 µg/mL, partner 0.6 µg/mL
[4] = first compound 2 µg/mL, partner 0.15 µg/mL
[5] = first compound 2 µg/mL, partner 0.3 µg/mL
[6] = first compound 2 µg/mL, partner 0.6 µg/mL
[7] = first compound 4 µg/mL, partner 0.15 µg/mL
[8] = first compound 4 µg/mL, partner 0.3 µg/mL
[9] = first compound 4 µg/mL, partner 0.6 µg/mL
[10] = first compound 0.5 µg/mL, partner 2 µg/mL, one replicate
[11] = first compound 0.5 µg/mL, partner 4 µg/mL, one replicate
[12] = first compound 0.5 µg/mL, partner 8 µg/mL, one replicate
[13] = first compound 1 µg/mL, partner 2 µg/mL
[14] = first compound 1 µg/mL, partner 4 µg/mL
[15] = first compound 1 µg/mL, partner 8 µg/mL
[16] = first compound 2 µg/mL, partner 2 µg/mL
[17] = first compound 2 µg/mL, partner 4 µg/mL
[18] = first compound 2 µg/mL, partner 8 µg/mL
[19] = first compound 4 µg/mL, partner 2 µg/mL
[20] = first compound 4 µg/mL, partner 4 µg/mL
[21] = first compound 4 µg/mL, partner 8 µg/mL
[22] = first compound 1 µg/mL, partner 16 µg/mL
[23] = first compound 1 µg/mL, partner 32 µg/mL, one replicate
[24] = first compound 1 µg/mL, partner 64 µg/mL, one replicate
[25] = first compound 2 µg/mL, partner 16 µg/mL
[26] = first compound 2 µg/mL, partner 32 µg/mL, one replicate
[27] = first compound 2 µg/mL, partner 64 µg/mL, one replicate
[28] = first compound 4 µg/mL, partner 16 µg/mL
[29] = first compound 4 µg/mL, partner 32 µg/mL, one replicate
[30] = first compound 4 µg/mL, partner 64 µg/mL, one replicate
[31] = first compound 8 µg/mL, partner 4 µg/mL, one replicate
[32] = first compound 8 µg/mL, partner 8 µg/mL, one replicate
[33] = first compound 1 µg/mL, partner 16 µg/mL, one replicate
[34] = first compound 2 µg/mL, partner 16 µg/mL, one replicate
[35] = first compound 4 µg/mL, partner 16 µg/mL, one replicate

Cc1cc(NS(=O)(=O)c2ccc(N)cc2)no1 [Sulfamethoxazol] + CN(N=O)C(=O)N[C@@H](C=O)[C@@H](O)[C@H](O)[C@H](O)CO [Streptozotocin]
fitness (B. subtilis 168; first compound 0.5 µg/mL, partner 0.15 µg/mL, one replicate): 0.931 | fitness (B. subtilis 168; first compound 0.5 µg/mL, partner 0.3 µg/mL, one replicate): 0.904 | fitness (B. subtilis 168; first compound 0.5 µg/mL, partner 0.6 µg/mL, one replicate): 0.943 | fitness (B. subtilis 168; [1]): 0.855 | fitness (B. subtilis 168; [2]): 0.847 | fitness (B. subtilis 168; [3]): 0.927 | fitness (B. subtilis 168; [4]): 0.85 | fitness (B. subtilis 168; [5]): 0.889 | fitness (B. subtilis 168; [6]): 0.889 | fitness (B. subtilis 168; first compound 4 µg/mL, partner 0.15 µg/mL, one replicate): ≥ 1 | fitness (B. subtilis 168; first compound 4 µg/mL, partner 0.3 µg/mL, one replicate): ≥ 1 | fitness (B. subtilis 168; first compound 4 µg/mL, partner 0.6 µg/mL, one replicate): 0.956 | fitness (S. aureus DSM 20231; [1]): 0.794 | fitness (S. aureus DSM 20231; [2]): 0.727 | fitness (S. aureus DSM 20231; [3]): 0.632 | fitness (S. aureus DSM 20231; [4]): 0.861 | fitness (S. aureus DSM 20231; [5]): 0.735 | fitness (S. aureus DSM 20231; [6]): 0.689 | fitness (S. aureus DSM 20231; [7]): 0.857 | fitness (S. aureus DSM 20231; [8]): 0.815 | fitness (S. aureus DSM 20231; [9]): 0.689 | fitness (S. aureus Newman; [1]): 0.891 | fitness (S. aureus Newman; [2]): 0.754 | fitness (S. aureus Newman; [3]): 0.605 | fitness (S. aureus Newman; [4]): 0.868 | fitness (S. aureus Newman; [5]): 0.789 | fitness (S. aureus Newman; [6]): 0.587 | fitness (S. aureus Newman; [7]): 0.88 | fitness (S. aureus Newman; [8]): 0.798 | fitness (S. aureus Newman; [9]): 0.62 | fitness (S. aureus Newman; first compound 8 µg/mL, partner 0.15 µg/mL, one replicate): 0.854 | fitness (S. aureus Newman; first compound 8 µg/mL, partner 0.3 µg/mL, one replicate): 0.804 | fitness (S. aureus Newman; first compound 8 µg/mL, partner 0.6 µg/mL, one replicate): 0.751 | fitness (S. pneumoniae D39V; first compound 1 µg/mL, partner 1.2 µg/mL): 0.939 | fitness (S. pneumoniae D39V; first compound 1 µg/mL, partner 2.4 µg/mL): 0.94 | fitness (S. pneumoniae D39V; first compound 1 µg/mL, partner 4.8 µg/mL): 0.935 | fitness (S. pneumoniae D39V; first compound 2 µg/mL, partner 1.2 µg/mL): 0.944 | fitness (S. pneumoniae D39V; first compound 2 µg/mL, partner 2.4 µg/mL): 0.942 | fitness (S. pneumoniae D39V; first compound 2 µg/mL, partner 4.8 µg/mL): 0.953 | fitness (S. pneumoniae D39V; first compound 4 µg/mL, partner 1.2 µg/mL): 0.911 | fitness (S. pneumoniae D39V; first compound 4 µg/mL, partner 2.4 µg/mL): 0.899 | fitness (S. pneumoniae D39V; first compound 4 µg/mL, partner 4.8 µg/mL): 0.917

Cc1cc(NS(=O)(=O)c2ccc(N)cc2)no1 [Sulfamethoxazol] + CN[C@@H]1[C@H](O)[C@H](NC)[C@H]2O[C@@]3(O)C(=O)C[C@@H](C)O[C@H]3O[C@@H]2[C@H]1O [Spectinomycin]
fitness (B. subtilis 168; [10]): 0.916 | fitness (B. subtilis 168; [11]): 0.882 | fitness (B. subtilis 168; [12]): 0.851 | fitness (B. subtilis 168; [13]): 0.926 | fitness (B. subtilis 168; [14]): 0.92 | fitness (B. subtilis 168; [15]): 0.96 | fitness (B. subtilis 168; [16]): 0.853 | fitness (B. subtilis 168; [17]): 0.861 | fitness (B. subtilis 168; [18]): 0.891 | fitness (B. subtilis 168; [19]): 0.941 | fitness (B. subtilis 168; [20]): 0.959 | fitness (B. subtilis 168; [21]): 0.891 | fitness (S. aureus DSM 20231; [14]): 0.897 | fitness (S. aureus DSM 20231; [15]): 0.822 | fitness (S. aureus DSM 20231; [22]): 0.763 | fitness (S. aureus DSM 20231; [23]): 0.826 | fitness (S. aureus DSM 20231; [24]): 0.08 | fitness (S. aureus DSM 20231; [17]): 0.896 | fitness (S. aureus DSM 20231; [18]): 0.861 | fitness (S. aureus DSM 20231; [25]): 0.812 | fitness (S. aureus DSM 20231; [26]): 0.796 | fitness (S. aureus DSM 20231; [27]): 0.0783 | fitness (S. aureus DSM 20231; [20]): 0.994 | fitness (S. aureus DSM 20231; [21]): 0.957 | fitness (S. aureus DSM 20231; [28]): 0.849 | fitness (S. aureus DSM 20231; [29]): 0.802 | fitness (S. aureus DSM 20231; [30]): 0.0708 | fitness (S. aureus Newman; [14]): 0.972 | fitness (S. aureus Newman; [15]): 0.986 | fitness (S. aureus Newman; [22]): 0.877 | fitness (S. aureus Newman; [23]): 0.589 | fitness (S. aureus Newman; [24]): 0.0829 | fitness (S. aureus Newman; [17]): 0.964 | fitness (S. aureus Newman; [18]): 0.985 | fitness (S. aureus Newman; [25]): 0.927 | fitness (S. aureus Newman; [26]): 0.577 | fitness (S. aureus Newman; [27]): 0.0759 | fitness (S. aureus Newman; [20]): 0.983 | fitness (S. aureus Newman; [21]): 0.967 | fitness (S. aureus Newman; [28]): 0.925 | fitness (S. aureus Newman; [29]): 0.581 | fitness (S. aureus Newman; [30]): 0.0529 | fitness (S. aureus Newman; [31]): ≥ 1 | fitness (S. aureus Newman; [32]): 0.959 | fitness (S. aureus Newman; first compound 8 µg/mL, partner 16 µg/mL, one replicate): 0.905 | fitness (S. pneumoniae D39V; [14]): 0.954 | fitness (S. pneumoniae D39V; [15]): 0.935 | fitness (S. pneumoniae D39V; [33]): 0.691 | fitness (S. pneumoniae D39V; [17]): 0.889 | fitness (S. pneumoniae D39V; [18]): 0.899 | fitness (S. pneumoniae D39V; [34]): 0.634 | fitness (S. pneumoniae D39V; [20]): 0.924 | fitness (S. pneumoniae D39V; [21]): 0.922 | fitness (S. pneumoniae D39V; [35]): 0.702

Cc1cc(NS(=O)(=O)c2ccc(N)cc2)no1 [Sulfamethoxazol] + CN[C@@H]1[C@H](O[C@H]2[C@H](O[C@H]3[C@H](O)[C@@H](O)[C@H](N=C(N)N)[C@@H](O)[C@@H]3N=C(N)N)O[C@@H](C)[C@]2(O)C=O)O[C@@H](CO)[C@H](O)[C@H]1O [Streptomycin]
fitness (B. subtilis 168; [10]): ≥ 1 | fitness (B. subtilis 168; [11]): ≥ 1 | fitness (B. subtilis 168; [12]): 0.0922 | fitness (B. subtilis 168; [13]): 0.903 | fitness (B. subtilis 168; [15]): 0.045 | fitness (B. subtilis 168; [16]): 0.9 | fitness (B. subtilis 168; [18]): 0.0312 | fitness (B. subtilis 168; [19]): 0.888 | fitness (B. subtilis 168; [20]): 0.153 | fitness (B. subtilis 168; [21]): 0.0185 | fitness (S. aureus Newman; first compound 1 µg/mL, partner 1 µg/mL): 0.98 | fitness (S. aureus Newman; [13]): 0.968 | fitness (S. aureus Newman; first compound 2 µg/mL, partner 1 µg/mL): 0.939 | fitness (S. aureus Newman; [16]): 0.999 | fitness (S. aureus Newman; first compound 2 µg/mL, partner 8 µg/mL, one replicate): 0.913 | fitness (S. aureus Newman; first compound 4 µg/mL, partner 1 µg/mL): 0.956 | fitness (S. aureus Newman; [19]): 0.93 | fitness (S. aureus Newman; first compound 4 µg/mL, partner 8 µg/mL, one replicate): 0.876 | fitness (S. aureus Newman; first compound 8 µg/mL, partner 2 µg/mL, one replicate): 0.973 | fitness (S. aureus Newman; [31]): 0.964 | fitness (S. aureus Newman; [32]): 0.897 | fitness (S. pneumoniae D39V; [13]): 0.962 | fitness (S. pneumoniae D39V; [14]): 0.932 | fitness (S. pneumoniae D39V; [15]): 0.877 | fitness (S. pneumoniae D39V; [33]): 0.763 | fitness (S. pneumoniae D39V; [16]): 0.962 | fitness (S. pneumoniae D39V; [17]): 0.932 | fitness (S. pneumoniae D39V; [18]): 0.908 | fitness (S. pneumoniae D39V; [34]): 0.78 | fitness (S. pneumoniae D39V; [19]): 0.932 | fitness (S. pneumoniae D39V; [20]): 0.944 | fitness (S. pneumoniae D39V; [21]): 0.95 | fitness (S. pneumoniae D39V; [35]): 0.79
